Data from article PMC12059162 (Scientific Reports, 2025).

Columns and labels:
[1] = tested on: PANC-1 cells; assay: CyQUANT LDH direct cytotoxicity assay; type: cell-based, human; settings: PANC-1, 25 µM, 72 h
Experimental: To assess the direct cytotoxicity, the CyQUANT™ LDH Cytotoxicity Assay (Invitrogen Corporation, New York, NY, USA) was used, which is a colourimetric assay. It is based on the detection of lactate dehydrogenase (LDH) activity. When there is damage to the plasma membrane, LDH is released into the cell culture medium, where it can be detected. First, 5 × 10^3 cells/well/100 µL concentration of cells were seeded in a 96-well plate, and after 24 h of incubation, the cells were treated with the molecules at concentrations of 0.5, 10 and 25 µM. After 72 h of treatment, 50 µl of the media from each sample was pipetted to a new 96-well plate. Then, the necessary steps were carried out according to the manufacturer’s instructions. Absorbance was measured for each well using a plate reader (Multiskan MS, Labsystems, Helsinki, Finland) at 492 and 680 nm. The % cytotoxicity was then calculated according to the manufacturer’s instructions. Three parallel samples were analysed in each treatment group.

[2] = tested on: phospho-p53 (S392); assay: Human Apoptosis Array in PANC-1 cells; settings: PANC-1, 0.5 µM, 72 h
[3] = tested on: XIAP; assay: Human Apoptosis Array in PANC-1 cells; settings: PANC-1, 0.5 µM, 72 h
[4] = tested on: NHDF cells; assay: alamarBlue cell viability, healthy cells; settings: Homo sapiens, NHDF, 72 h, read-out: IC50 values (μM) 72 hours
[5] = tested on: survivin; assay: Human Apoptosis Array in PANC-1 cells; settings: PANC-1, 0.5 µM, 72 h
[6] = tested on: caspase-3/7; assay: CellEvent Caspase-3/7 activity imaging in PANC-1 cells; settings: PANC-1, 0.5 µM, 72 h, normalised to DMSO control (n = 1)
[7] = tested on: cytochrome-c; assay: Human Apoptosis Array in PANC-1 cells; settings: PANC-1, 0.5 µM, 72 h
[8] = tested on: DR4; assay: qPCR apoptotic gene expression in PANC-1 cells; settings: PANC-1, 25 µM
[9] = tested on: SMAC; assay: Human Apoptosis Array in PANC-1 cells; settings: PANC-1, 0.5 µM, 72 h
[10] = tested on: DR5; assay: Human Apoptosis Array in PANC-1 cells; settings: PANC-1, 0.5 µM, 72 h

For `O=C1C2=C(CCN(Cc3ccccc3)C2)N2CCN=C2N1Cc1ccc(F)cc1` [TBP-134], the cytotoxicity at 25 µM ([1]; Homo sapiens, DMSO control 5.3%) was 6.9%, the “Direct cytotoxicity, fold compared to the DMSO control” value [1] was 1.3 fold and the “phospho-p53 (S392) protein level” value [2] was “decrease”. The XIAP protein level [3] was “decrease” and the IC50 [4] was 1.55 µM.

`O=C1C2=C(CCN(Cc3ccccc3)C2)N2CCN=C2N1Cc1cccc(F)c1` [TBP-135] was tested, and the survivin protein level [5] was “did not exert detectable change”, the “Number of caspase-3/7 active cells, increase” value [6] was 7.8 fold and the cytochrome-c protein level [7] was “significantly decreased”. The “DR4 mRNA expression” value ([8]; 3 h) was “significantly upregulated”, the “DR4 mRNA expression” value ([8]; 24 h, normalised to DMSO control) was 3.7 fold and the SMAC protein level [9] was “significantly increased”. The DR5 protein level [10] was “significantly increased”.
